Data set [1] is described as follows: Drug-linker stability assay (LC-MS). Format: physicochemical. The settings on record: after 1 week, physiologically relevant pH and temperature (37 C). The procedure: Stability Assay: In a 1.5 mL screw-top conical plastic vial, 42 (FIG. 1A) or 39 (FIG. 1B) was dissolved in 270 μL of DMSO (5 mM). 12 μL of this DMSO drug-linker solution was mixed with 576 μL pH 5.0 sodium acetate buffer (50 mM sodium acetate, 100 mM NaCl, 4 mM EDTA). 1-naphthalene acetic acid in DMSO (12 μL, 5 mM, 1 equiv.) was added as an internal standard. The vial was then placed in a heating block at 37 C and protected from direct light. 25 μL aliquots of the reaction mixture were removed at 0 h, 4 h, 24 h, 48 h, 72 h, and 1 week and analyzed by LC-MS. LC-MS peaks were integrated using Agilent OpenLab ChemStation and the areas of each peak were normalized to 1-napthalene acetic acid at 280 nM. Percent drug-linker remaining is defined as the normalized peak area at a given time point divided by the normalized peak area at 0 hours x 100%. Each assay was also performed at pH 7.4 (phosphate-buffered solution, Corning), and assays at each pH value were performed with and without the addition of 8 mM N-acetylcysteine.

For a further data set, the system named is MES-SA/Dx-5 cells. As to the kind of experiment: Cell proliferation assay (resazurin, CellTiter-Blue), MES-SA/Dx-5 cells. The settings on record: Homo sapiens. Format: cell-based. The procedure: (§1) Cell Culture: All cell-culture work was conducted in a class II biological safety cabinet. H460 cells (P2-P4, American Type Culture Collection) were maintained in RPMI-1640 medium supplemented with 10% fetal bovine serum (FBS). HL-60 cells (P2-P4, American Type Cuture Collection) were maintained in RPMI-1640 medium supplemented with 10% FBS. MES-SA/Dx-5 cells (P2-P4, European Collection of Authenticated Cell Cultures) were maintained in McCoy's 5A medium supplemented with 10% FBS.
(§2) Cell Proliferation Assay: H460 and MES-SA/Dx-5 cells were grown to approximately 80% confluence, and then were trpysinized, collected, and pelleted by centrifugation (10 min at 183 x g, 24° C.), and HL-60 cells were grown to confluence and directly pelleted by centrifugation (10 min at 183 × g, 24° C.). The supernatant was discarded and the cell pellet was resuspended in 10 mL of fresh medium. A sample was diluted 10-fold in fresh medium, and the concentration of cells was determined using a hemacytometer. The cell suspension was diluted to a concentration of 3000 cells/100 μL. The wells of a pre-sterilized 96-well plate were charged with 100 μL per well of the diluted cellular suspension. The plate was incubated for 24 h at 37° C. (5% CO2).
(§3) Stock solutions of each compound in DMSO were diluted with the appropriate media to 100 nM solutions (1% DMSO), which were then serially diluted with the appropriate media, and 100-uL aliquots of the resulting solutions were added to the wells containing adhered cells to achieve final concentrations of 0.39 nM to 50 nM. After incubating at 37° C. for 72 h (5% CO2), 20 μL of resazurin solution (Promega CellTiter-Blue® Cell Viability Assay) was added to each well. After incubating at 37° C. for 2.0 h (5% CO2), the fluorescence (544 nm excitation/590 nm emission) was recorded using a microplate reader (SpectraMax PLUS384) as a measure of viable cells.
(§4) Percent growth inhibition was calculated for each well, based upon the following formula: Percent growth inhibition=100×(S−B0)/(Bt−B0) where S is the sample fluorescence, Bt is the average fluorescence of an untreated population of cells at the completion of the assay, and B0 is the average fluorescence of an untreated population of cells at the beginning of the assay.
(§5) Each compound was assayed at eight separate concentrations per experiment. The percent inhibition at each concentration was plotted against log (concentration), and a curve fit was generated using the XLfit4 plugin (IDBS Software) running in Excel (Microsoft). GI50 values were computed to reflect the concentrations at which the resulting curves pass through 50% inhibition.

The test system of data set [2] is Ramos cells (B lymphocyte cells). Kind of data set: Growth inhibition of Ramos cells. Format: cell-based. The settings on record: Homo sapiens. The procedure:
as §3, §4, §5

For data set [3] the following is noted: patients with metastatic cancer; only problematic at doses beyond those which affected tumor volume decrease; cited from earlier work.
The test system of a further data set is H460 cells. Kind of data set: Cell proliferation assay (resazurin, CellTiter-Blue), H460 cells. The class given is cell-based. The note with it: for GI50: Homo sapiens, NCI-H460, 72 h; for Effect of the C16 modification on potency (in words): comment on the data of Table 2 (H460 cells). The method, then: as §1, §2, §3, §4, §5
A short description of data set [4]: 1H NMR studies of decomposition of the C16 thiol. Format: physicochemical. The settings on record: on an hour time scale.
The target of the next data set is T1, cathepsin B (Homo sapiens, UniProt P07858).
T1 construct: purchased Enzo Life Sciences
As to the kind of experiment: Drug-linker release assay with cathepsin B (LC-MS). Format: in vitro ADME. The settings on record: cathepsin B enzyme solution in buffer; cathepsin B added, pH 5.0 sodium acetate buffer, 37 C; read-out: Half-life of liberation of the C16 primary amine warhead. The procedure: Release Assay: In a 1.5 mL screw-top conical plastic vial, 42 was dissolved in 270 μL of DMSO (5 mM). 12 μL of this DMSO drug-linker solution was mixed with a DMSO solution of N-acetylcysteine (10 mM, 12 μL, 2 equiv.). To the solution was then added 510 μL pH 5.0 sodium acetate buffer (50 mM sodium acetate, 100 mM NaCl, 4 mM EDTA, 8 mM N-acetylcysteine). 1—Naphthalene acetic acid in DMSO (12 μL, 5 mM, 1 equiv.) was added as an internal standard. The vial was then placed in a heating block at 37 C for 30 minutes. After 30 minutes, 54 μL of cathepsin B solution (379 U/mL, Enzo Life Sciences) was added. The vial was returned to the heating block at 37 C and protected from direct light. 25 μL aliquots of the reaction mixture were removed at 0 min, 20 min, 40 min, 60 min, 120 min, and 180 min and analyzed by LC-MS. LC-MS peaks were integrated using Agilent OpenLab ChemStation and the areas of each peak were normalized to 1-napthalene acetic acid at 280 nM. Percent drug-linker remaining is defined as the normalized peak area at a given time point divided by the normalized peak area at 0 hours×100% (FIG. 2A). A similar procedure was used for the release assay of 39, using glucuronidase instead of cathepsin B (FIG. 2B).

The mark [5] stands for this setting: MES-SA/Dx5, MES-SA/Dx-5 cells, 72 h incubation, read-out: GI50.

The values below come from patent publication US20250144227A1, “C-16 MODIFIED TRIOXACARCINS, ANTIBODY DRUG CONJUGATES, AND USES THEREOF” (President and Fellows of Harvard College, priority 2021, published 2025).

Like-named read-outs stand apart in the source and are kept apart here.

The compound `COc1c2c(c(O)c3c4c(c(C)cc13)[C@@H]1O[C@]3(CNC(=O)OCc5ccc(O[C@@H]6O[C@H](C(=O)O)[C@@H](O)[C@H](O)[C@H]6O)c(-n6cc(COCCOCCOCCOCCN7C(=O)C=CC7=O)nn6)c5)O[C@H]1[C@@](OC)(O4)[C@@]31CO1)C(=O)CCC2` [compound 39, (2S,3S,4S,5R,6S)-6-(2-(4-(13-(2,5-Dioxo-2,5-dihydro-1H-pyrrol-1-yl)-2,5,8,11-tetraoxatridecyl)-1H-1,2,3-triazol-1-yl)-4-((((((2R,2′R,3a′R,4'S,13a′R)-12′-hydroxy-7′,13a′-dimethoxy-5′-methyl-11′-oxo-3a′,8′,9′,10′,11′,13a′-hexahydro-2′H, 4′H-spiro [oxirane-2,1′-[2.4]epoxyfuro[3,2-b]naphtho[2,3-h]chromen]-2′-yl)methyl)carbamoyl)oxy)methyl)phenoxy)-3,4,5-trihydroxytetrahydro-2H-pyran-2-carboxylic acid] yielded a Percent drug-linker remaining in data set [1] of 75%.

In the data set on MES-SA/Dx-5 cells (MES-SA/Dx5, 72 h), `COc1c2c(c(O)c3c4c(c(C)cc13)C1OC3(CN=[N+]=[N-])OC1[C@@](OC)(O4)[C@@]31CO1)C(=O)CCC2` (stereo partly shown) [TP-9] had a GI50 of 33 nM.

On to `CCCOCC12OC3c4c(C)cc5c(OC)c6c(c(O)c5c4O[C@](OC)(C3O1)[C@@]21CO1)C(=O)CCC6` (stereo partly shown) [TP-5], for which the GI50 with MES-SA/Dx-5 cells (setting [5]) came out at 25 nM.

Compound `COc1c2c(c(O)c3c4c(c(C)cc13)C1OC3(COC5CC(C)(O)C(OC(C)=O)C(C)O5)OC1[C@@](OC)(O4)[C@@]31CO1)C(=O)CCC2` (stereo partly shown) [TP-12] came in with a GI50 in the data set on MES-SA/Dx-5 cells (MES-SA/Dx5, 72 h) of 50 nM.

Take `C=CCOCC12OC3c4c(C)cc5c(OC)c6c(c(O)c5c4O[C@](OC)(C3O1)[C@@]21CO1)C(=O)CCC6` (stereo partly shown) [TP-6]: in the data set on MES-SA/Dx-5 cells (setting [5]), the GI50 stood at 17 nM.

The compound `COCC12OC3c4c(C)cc5c(OC)c6c(c(O)c5c4O[C@](OC)(C3O1)[C@@]21CO1)C(=O)CCC6` (stereo partly drawn) [compound 43, (2R,2′R,3a′R,4'S, 13a′R)-12′-hydroxy-7′, 13a′-dimethoxy-2′-(methoxymethyl)-5′-methyl-3a′ 4′,8′,9′,10′,13a′-hexahydro-2′H, 11′H-spiro[oxirane-2,1′-[2,4]epoxyfuro[3,2-b]naphtho[2,3-h]chromen]-11′-one] yielded a GI50 in data set [2] of 2.6 ± 0.8 nM.

Turning to LL-D49194a1, the Dose-limiting toxicity result in data set [3] is listed as “pancarditis was the only significant dose-limiting toxicity”.

Take `COc1c2c(c(O)c3c4c(c(C)cc13)C1OC3(COCc5ccccc5)OC1[C@@](O)(O4)[C@@]31CO1)C(=O)CCC2` (stereo partly shown) [TP-4]: in the data set on MES-SA/Dx-5 cells (setting [5]), the GI50 is more than 100 nM.

`COc1c2c(c(O)c3c4c(c(C)cc13)C1OC3(C)OC1[C@@](OC)(O4)[C@@]31CO1)C(=O)CCC2` (stereo partly drawn) [compound 45, (2R,2′R,3a'S,4'S)-12′-hydroxy-7′,13a′-dimethoxy-2′,5′-dimethyl-3a′ 4′,8′,9′,10′,13a′-hexahydro-2′H,11′H-spiro [oxirane-2,1′-[2,4]epoxyfuro[3,2-b]naphtho[2,3-h]chromen]-11′-one] displayed a GI50 in data set [2] of 20 ± 5 nM.

For the compound `COc1c2c(c(O)c3c4c(c(C)cc13)C1OC3(COCc5cn(Cc6ccccc6)nn5)OC1[C@@](OC)(O4)[C@@]31CO1)C(=O)CCC2` (stereo partly drawn) [compound 27, (2R,2′R,3a′R,13a′R)-2′-(((1-Benzyl-1H-1,2,3-triazol-4-yl)methoxy)methyl)-12′-hydroxy-7′,13a′-dimethoxy-5′-methyl-3a′,4′,8′,9′, 10′, 13a′-hexahydro-2′H,11′H-spiro [oxirane-2, 1′-[2,4]epoxyfuro[3,2-b]naphtho[2.3-h]chromen]-11′-one], in the data set on H460 cells, the GI50 is more than 100 nM and the “Effect of the C16 modification on potency (in words)” value was “ablates potency”.

Regarding `COc1c2c(c(O)c3c4c(c(C)cc13)C1OC3(CS)OC1[C@@](OC)(O4)[C@@]31CO1)C(=O)CCC2` (stereo partly drawn) [compound 34, (25,2'S,3a′R,13a′R)-12′-hydroxy-2′-(mercaptomethyl)-7′,13a′-dimethoxy-5′-methyl-3a′, 4′,8′,9′,10′,13a′-hexahydro-2′H,11′H-spiro [oxirane-2,1′-[2,4]epoxyfuro[3,2-b]naphtho[2,3-h]chromen]-11′-one], in the data set on H460 cells, the GI50 was more than 100 nM and the “Effect of the C16 modification on potency (in words)” value is listed as “lack of activity”. In addition, the “Decomposition of the unprotected thiol” value in data set [4] is “rapid, non-productive, decomposition pathway”.

Regarding `COc1c2c(c(O)c3c4c(c(C)cc13)C1OC3(CO)OC1[C@@](OC)(O4)[C@@]31CO1)C(=O)CCC2` (stereo partly shown) [TP-1], the GI50 in the data set on MES-SA/Dx-5 cells (MES-SA/Dx5, 72 h) came out at 8 nM.

The compound `COc1c2c(c(O)c3c4c(c(C)cc13)[C@H]1O[C@]3(CNC(=O)OCc5ccc(NC(=O)[C@H](C)NC(=O)[C@@H](NC(=O)CCOCCOCCOCCOCCN6C(=O)C=CC6=O)C(C)C)cc5)O[C@@H]1C(OC)(O4)[C@@]31CO1)C(=O)CCC2` (stereo partly drawn) [compound 42, 4-((17S,20S)-1-(2,5-dioxo-2,5-dihydro-1H-pyrrol-1-yl)-17-isopropyl-20-methyl-15,18-dioxo-3,6,9,12-tetraoxa-16,19-diazahenicosan-21-amido)benzyl (((2R,2′R,3a'S,4′R)-12′-hydroxy-7′,13a′-dimethoxy-5′-methyl-11′-oxo-3a′,8′,9′,10′, 11′, 13a′-hexahydro-2′H,4′H-spiro [oxirane-2,1′-[2,4]epoxyfuro[3,2-b]naphtho[2,3-h]chromen]-2′-yl)methyl)carbamate] displayed a Percent drug-linker remaining in data set [1] of 75%. The half-life at 100 µM on cathepsin B is approximately 15 min.

For `C#CCOCC12OC3c4c(C)cc5c(OC)c6c(c(O)c5c4O[C@](OC)(C3O1)[C@@]21CO1)C(=O)CCC6` (stereo partly shown) [TP-7], the GI50 in the data set with MES-SA/Dx-5 cells (MES-SA/Dx5, 72 h) came to 15 nM.

Regarding `COc1c2c(c(O)c3c4c(c(C)cc13)C1OC3(CO)OC1[C@@](OC)(O4)[C@@]31CO1)C(=O)CCC2` (stereo partly shown) [compound 19, (2R.2′R,3a′R, 13a′R)-12′-Hydroxy-2′-(hydroxymethyl)-7′,13a′-dimethoxy-5′-methyl-3a′, 4′,8′,9′,10′,13a′-hexahydro-2′H, 11′H-spiro [oxirane-2,1′-[2,4]epoxyfuro[3,2-b]naphtho[2,3-h]chromen]-11′-one], the GI50 in the data set with H460 cells came out at 5.5 nM.
